Assay results as given in US20040063670A1, “Use of bisphosphonates for pain treatment” (priority 2000, published 2004).

How the values were obtained:
Assay type in all cases: in vivo
[1] = test system: rat model of neuropathic pain; experiment: Neuropathic mechanical hyperalgesia (partial ligation of the left sciatic nerve)
Method: Mechanical hyperalgesia was examined in a rat model of neuropathic pain induced by partial ligation of the left sciatic nerve. Approximately 14 days following surgery mechanical withdrawal thresholds of both the ligated (ipsilateral) and non-ligated (contralateral) paw were measured prior to (predose) and then from 10 min to 6 h following drug or vehicle administration. Reversal of hyperalgesia at each time point was calculated according to the formula: [formula]
(§1) All experiments were carried out using groups of 6 animals. Stock concentrations of drugs were dissolved in distilled water and subsequent dilutions were made in 0.9% saline for subcutaneous administration in a volume of 4 mlkg^−1. All drugs were made up in plastic vials and kept in the dark.
(§2) Statistical analysis was carried out on withdrawal threshold readings (g) using ANOVA with repeated measures followed by Tukey's HSD test. Efficacy refers to the maximal reversal of hyperalgesia observed at the doses used.

[2] = test system: rat model of inflammatory pain; experiment: Inflammatory mechanical hyperalgesia (FCA, Randal-Sellito paw withdrawal threshold); settings: for maximal reversal of mechanical hyperalgesia: ipsilateral paw, 24 h after FCA
Method: Mechanical hyperalgesia was examined in a rat model of inflammatory pain. Paw withdrawal thresholds to an increasing pressure stimulus were measured by the Randal-Sellito technique using an analgesymeter (Ugo Basile, Milan), in naïve animals prior to an intraplantar injection of complete Freund's complete adjuvant (FCA) into the left hind paw. 24 h later paw withdrawal thresholds were measured again prior to (predose) and then from 10 min to 6 h following drug or vehicle administration. Reversal of hyperalgesia in the ipsilateral paw was calculated according to the formula: [formula]
as §1, §2

[3] = test system: rat model of bone cancer pain; experiment: Rat model of bone cancer pain (intra-tibial MRMZ1 mammary gland carcinoma cells)
Method: Adult female rats were given intra-tibial injections of MRMZ1 rat mammary gland carcinoma cells (3 μl, 10^7 cells/ml). These animals gradually developed mechanical hyperalgesia, mechanical allodynia (skin sensitivity to non-noxious stimuli) and hind limb sparing, beginning on day 12-14 following cell injection.

[4] = 10 and 30 μg/kg s.c. 3 times a week from the day of cell injection

O=P(O)(O)C(Cl)(Cl)P(=O)(O)O [Clodronate, 1,1-dichloromethane-1,1-diphosphonic acid] was tested, and the “activity in the model of neuropathic pain (reversal of hyperalgesia)” value ([1]; 0.3-10 mgkg^−1 s.c.) was “inactive”, the “contralateral paw withdrawal thresholds” value ([1]; 0.3-10 mgkg^−1 s.c.) was “some reductions” and the “reversing inflammatory mechanical hyperalgesia” value ([2]; 0.3-10 mgkg^−1 s.c.) was “ineffective”. For the same compound, the paw withdrawal thresholds ([2]; highest dose tested of 0.3-10 mgkg^−1 s.c.) was “slight reductions”.

NCCC(O)(P(=O)(O)O)P(=O)(O)O [Pamidronate, 3-amino-1-hydroxypropane-1,1-diphosphonic acid] was tested, and the “contralateral paw withdrawal thresholds” value ([1]; 0.03-1 mgkg^−1 s.c.) was “some reductions”, the “maximal reversal of hyperalgesia” value ([1]; 0.03-1 mgkg^−1 s.c.) was 20% and the “reversing inflammatory mechanical hyperalgesia” value ([2]; 0.03-1 mgkg^−1 s.c.) was “ineffective”. For the same compound, the paw withdrawal thresholds ([2]; highest dose tested of 0.03-1 mgkg^−1 s.c.) was “slight reductions”.

In the case of O=P(O)(O)C(O)(Cn1ccnc1)P(=O)(O)O [Zoledronate, 1-hydroxy-2-(imidazol-1-yl)ethane-1,1-diphosphonic acid], the hind limb sparing [3, 4] is reported as “profound inhibition”, the mechanical allodynia [3, 4] is reported as “profound inhibition” and the “development of hind limb sparing over 19 days” value ([3]; higher dose (30 μg/kg s.c. 3 times a week), 19 days following intra-tibial cell injection) is reported as “did not develop any sign of hind limb sparing”. For the same compound, the “acute effect of a single injection” value ([3]; single injection 100 μg/kg s.c. on day 19) was “no acute effect”, the “time to maximal reversal of mechanical hyperalgesia” value ([1]; 0.003-0.1 mgkg^−1 s.c.) was ≤ 30 min and the “reversal of mechanical hyperalgesia (maximal)” value ([1]; 0.003-0.1 mgkg^−1 s.c., about 14 days after surgery) was 40%. For the same compound, the “contralateral paw withdrawal thresholds” value ([1]; highest dose of 0.003-0.1 mgkg^−1 s.c.) was “significant reduction”, the “time to maximal reversal of mechanical hyperalgesia” value ([2]; 0.003-0.1 mgkg^−1 s.c.) was ≤ 30 min and the “activity 3 h following administration (duration)” value ([2]; 0.003-0.1 mgkg^−1 s.c., 3 h after administration) was “no significant activity”. For the same compound, the “maximal reversal of mechanical hyperalgesia” value ([2]; 0.003-0.1 mgkg^−1 s.c.) was 100%, the “maximal reversal of mechanical hyperalgesia” value ([2]; 0.003-0.1 mgkg^−1 s.c., listed as zoledronic acid) was “about 100%” and the contralateral activity ([2]; highest dose of 0.003-0.1 mgkg^−1 s.c., contralateral paw) was “Some contralateral activity”.

For CN1CC[C@]23c4c5ccc(O)c4O[C@H]2[C@@H](O)C=C[C@H]3[C@H]1C5 [morphine], the mechanical allodynia ([3]; acute treatment, 1-10 mg/kg s.c.) was “dose dependent reduction” and the hind limb sparing ([3]; acute treatment, highest dose only (of 1-10 mg/kg s.c.)) was “significant reduction”.
